This is an account of results in US20090048258A1, “Amide Compound” (priority 2005, published 2009).

In general, IC50 refers to the concentration at which inhibition is half-maximal.

For this test, the target named is T1, Human DGAT1 (Homo sapiens, UniProt O75907).
T1 construct: my translation of the primer: M-G-DYKDDDD-GDRGSSRRR) (N); made in house; host or cells: Sf9 insect cells (recombinant baculovirus BAC-DGAT1, pFASTBAC1); microsome fraction
T1 sequence (O75907 1-488): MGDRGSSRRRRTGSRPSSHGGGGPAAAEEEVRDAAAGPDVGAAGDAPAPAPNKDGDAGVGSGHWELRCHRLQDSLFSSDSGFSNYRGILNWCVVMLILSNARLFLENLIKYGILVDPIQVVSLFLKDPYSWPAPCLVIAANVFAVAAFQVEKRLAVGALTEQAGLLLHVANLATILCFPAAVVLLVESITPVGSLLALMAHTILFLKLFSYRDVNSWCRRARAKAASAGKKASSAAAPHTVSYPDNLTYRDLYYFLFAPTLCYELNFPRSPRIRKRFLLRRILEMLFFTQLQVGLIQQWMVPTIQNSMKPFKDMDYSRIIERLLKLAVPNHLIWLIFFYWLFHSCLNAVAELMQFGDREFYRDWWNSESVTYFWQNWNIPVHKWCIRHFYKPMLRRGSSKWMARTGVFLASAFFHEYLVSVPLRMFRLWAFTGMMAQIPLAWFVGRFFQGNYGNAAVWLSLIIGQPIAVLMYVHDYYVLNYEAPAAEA
Briefly: DGAT inhibitory activity: [14C]-triglyceride synthesis by DGAT1 high expression Sf9 microsome. It counts as biochemical. The settings on record: Table 2, 25 μM dioleoylglycerol, 25 μM [14C]-Oleoyl-CoA, 32° C., 15 min, read-out: DGAT inhibitory activity (according to IC50). Put shortly:
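DGAT1 was overexpressed from recombinant baculovirus in Sf9 cells, and microsomes from these cells were the enzyme source. Reactions ran in 100 mM Tris-HCl pH 7.5, 250 mM sucrose, 150 mM MgCl2 and 0.01% BSA. [14C]-triglyceride was extracted into chloroform, separated by TLC and quantified by imaging plate, with inhibition calculated against control and blank (no microsome) counts.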
Regarding `CCOc1ccc(C(=O)CCC(=O)Nc2cc(-c3cccn3C(=O)OC(C)(C)C)cc(-c3ccccc3)n2)cc1OCC` [Example 118, tert-butyl 2-(2-{[4-(3,4-diethoxyphenyl)-4-oxobutanoyl]amino}-6-phenylpyridin-4-yl)-1H-pyrrole-1-carboxylate], the IC50 was in the range of 500 to 10000 nM.

For the molecule `CCOc1ccc(C(=O)CCC(=O)Nc2cc(-c3cnn(C)c3)cc(-c3ccccc3)n2)cc1OCC` [Example 119, 4-(3,4-diethoxyphenyl)-N-[4-(1-methyl-1H-pyrazol-4-yl)-6-phenylpyridin-2-yl]-4-oxobutanamide], the IC50 lay within 50 to 500 nM.

As to `CCOc1ccc(C(=O)CCC(=O)Nc2cc(-c3ccc4c(c3)OCO4)cc(-c3ccccc3)n2)cc1OCC` [Example 120, N-[4-(1,3-benzodioxol-5-yl)-6-phenylpyridin-2-yl]-4-(3,4-diethoxyphenyl)-4-oxobutanamide], the IC50 was 50 to 500 nM.

Regarding `CCOc1ccc(C(=O)CCC(=O)Nc2cc(-c3ccc4[nH]ccc4c3)cc(-c3ccccc3)n2)cc1OCC` [Example 121, 4-(3,4-diethoxyphenyl)-N-[4-(1H-indol-5-yl)-6-phenylpyridin-2-yl]-4-oxobutanamide], the IC50 is ≤ 10 nM.

Consider `CCOc1ccc(C(=O)CCC(=O)Nc2cc(-c3ccc(C#N)cc3)cc(-c3ccccc3)n2)cc1OCC` [Example 122, N-[4-(4-cyanophenyl)-6-phenylpyridin-2-yl]-4-(3,4-diethoxyphenyl)-4-oxobutanamide], for which the IC50 is 50 to 500 nM.

For the molecule `CCOc1ccc(C(=O)CCC(=O)Nc2cc(-c3ccc(O)cc3)cc(-c3ccccc3)n2)cc1OCC` [Example 123, 4-(3,4-diethoxyphenyl)-N-[4-(4-hydroxyphenyl)-6-phenylpyridin-2-yl]-4-oxobutanamide], the IC50 is ≤ 10 nM.

In the case of `CCOc1ccc(C(=O)CCC(=O)Nc2cc(-c3ccc(CO)cc3)cc(-c3ccccc3)n2)cc1OCC` [Example 124, 4-(3,4-diethoxyphenyl)-N-{4-[4-(hydroxymethyl)phenyl]-6-phenylpyridin-2-yl}-4-oxobutanamide], the IC50 is 10 to 50 nM.

Turning to `CCOc1ccc(C(=O)CCC(=O)Nc2cc(-c3ccc(CCC(=O)O)cc3)cc(-c3ccccc3)n2)cc1OCC` [Example 125, 3-[4-(2-{[4-(3,4-diethoxyphenyl)-4-oxobutanoyl]amino}-6-phenylpyridin-4-yl)phenyl]propanoic acid], the IC50 fell in the range of 500 to 10000 nM.

Turning to `CCOc1ccc(C(=O)CCC(=O)Nc2cc(-c3ccc(CCC(=O)OC)cc3)cc(-c3ccccc3)n2)cc1OCC` [Example 126, methyl 3-[4-(2-{[4-(3,4-diethoxyphenyl)-4-oxobutanoyl]amino}-6-phenylpyridin-4-yl)phenyl]propanoate], the IC50 lay within 50 to 500 nM.

As for `CCOc1ccc(C(=O)CCC(=O)Nc2cc(-c3ccc(/C=C/C(=O)OC)cc3)cc(-c3ccccc3)n2)cc1OCC` [Example 127, methyl (2E)-3-[4-(2-{[4-(3,4-diethoxyphenyl)-4-oxobutanoyl]amino}-6-phenylpyridin-4-yl)phenyl]acrylate], the IC50 was 500 to 10000 nM.

Turning to `CCOc1ccc(C(=O)CCC(=O)Nc2cc(-c3ccc(C(N)=O)cc3)cc(-c3ccccc3)n2)cc1OCC` [Example 128, 4-(2-{[4-(3,4-diethoxyphenyl)-4-oxobutanoyl]amino}-6-phenylpyridin-4-yl)benzamide], the IC50 fell in the range of 10 to 50 nM.

With `CCOc1ccc(C(=O)CCC(=O)Nc2cc(-c3ccc(N4CCOCC4)cc3)cc(-c3ccccc3)n2)cc1OCC` [Example 129, 4-(3,4-diethoxyphenyl)-N-[4-(4-(morpholin-4-yl)phenyl)-6-phenylpyridin-2-yl]-4-oxobutanamide], the IC50 is 500 to 10000 nM.

`CCOc1ccc(C(=O)CCC(=O)Nc2cc(-c3ccc(CN4CCOCC4)cc3)cc(-c3ccccc3)n2)cc1OCC` [Example 130, 4-(3,4-diethoxyphenyl)-N-{4-[4-(morpholin-4-ylmethyl)phenyl]-6-phenylpyridin-2-yl}-4-oxobutanamide]: the IC50 lay in the range of 500 to 10000 nM.

As for `CCOc1ccc(C(=O)CCC(=O)Nc2cc(-c3ccc(N(C)C)cc3)cc(-c3ccccc3)n2)cc1OCC` [Example 131, 4-(3,4-diethoxyphenyl)-N-{4-[4-(dimethylamino)phenyl]-6-phenylpyridin-2-yl}-4-oxobutanamide], the IC50 is 50 to 500 nM.

With `CCOc1ccc(C(=O)CCC(=O)Nc2cc(-c3cccc(C#N)c3)cc(-c3ccccc3)n2)cc1OCC` [Example 132, N-[4-(3-cyanophenyl)-6-phenylpyridin-2-yl]-4-(3,4-diethoxyphenyl)-4-oxobutanamide], the IC50 fell in the range of 50 to 500 nM.

Consider `CCOc1ccc(C(=O)CCC(=O)Nc2cc(-c3cccc(CC#N)c3)cc(-c3ccccc3)n2)cc1OCC` [Example 133, N-{4-[3-(cyanomethyl)phenyl]-6-phenylpyridin-2-yl}-4-(3,4-diethoxyphenyl)-4-oxobutanamide], for which the IC50 lay in the range of 10 to 50 nM.

Take `CCOc1ccc(C(=O)CCC(=O)Nc2cc(-c3cccc(O)c3)cc(-c3ccccc3)n2)cc1OCC` [Example 134, 4-(3,4-diethoxyphenyl)-N-[4-(3-hydroxyphenyl)-6-phenylpyridin-2-yl]-4-oxobutanamide]: the IC50 fell in the range of 10 to 50 nM.

For `CCCCOc1cccc(-c2cc(NC(=O)CCC(=O)c3ccc(OCC)c(OCC)c3)nc(-c3ccccc3)c2)c1` [Example 135, N-[4-(3-butoxyphenyl)-6-phenylpyridin-2-yl]-4-(3,4-diethoxyphenyl)-4-oxobutanamide], the IC50 is 500 to 10000 nM.

As for `CCOc1ccc(C(=O)CCC(=O)Nc2cc(-c3cccc(CO)c3)cc(-c3ccccc3)n2)cc1OCC` [Example 136, 4-(3,4-diethoxyphenyl)-N-{4-[3-(hydroxymethyl)phenyl]-6-phenylpyridin-2-yl}-4-oxobutanamide], the IC50 lay within 50 to 500 nM.

`CCOc1ccc(C(=O)CCC(=O)Nc2cc(-c3cccc(CCCO)c3)cc(-c3ccccc3)n2)cc1OCC` [Example 137, 4-(3,4-diethoxyphenyl)-N-{4-[3-(3-hydroxypropyl)phenyl]-6-phenylpyridin-2-yl}-4-oxobutanamide]: the IC50 lay in the range of 50 to 500 nM.

For the molecule `CCOc1ccc(C(=O)CCC(=O)Nc2cc(-c3cccc(C(=O)O)c3)cc(-c3ccccc3)n2)cc1OCC` [Example 138, 3-(2-{[4-(3,4-diethoxyphenyl)-4-oxobutanoyl]amino}-6-phenylpyridin-4-yl)benzoic acid], the half-inhibitory concentration (IC50) lay within 500 to 10000 nM.

For `CCOc1ccc(C(=O)CCC(=O)Nc2cc(-c3cccc(C(=O)OC)c3)cc(-c3ccccc3)n2)cc1OCC` [Example 139, methyl 3-(2-{[4-(3,4-diethoxyphenyl)-4-oxobutanoyl]amino}-6-phenylpyridin-4-yl)benzoate], the IC50 was 500 to 10000 nM.

As to `CCOc1ccc(C(=O)CCC(=O)Nc2cc(-c3cccc(C(C)=O)c3)cc(-c3ccccc3)n2)cc1OCC` [Example 140, N-[4-(3-acetylphenyl)-6-phenylpyridin-2-yl]-4-(3,4-diethoxyphenyl)-4-oxobutanamide], the IC50 lay within 50 to 500 nM.

Turning to `CCOc1ccc(C(=O)CCC(=O)Nc2cc(-c3cccc(CCC(=O)O)c3)cc(-c3ccccc3)n2)cc1OCC` [Example 141, 3-[3-(2-{[4-(3,4-diethoxyphenyl)-4-oxobutanoyl]amino}-6-phenylpyridin-4-yl)phenyl]propanoic acid], the IC50 lay in the range of 500 to 10000 nM.

On to `CCOc1ccc(C(=O)CCC(=O)Nc2cc(-c3cccc(CCC(=O)OC)c3)cc(-c3ccccc3)n2)cc1OCC` [Example 142, methyl 3-[3-(2-{[4-(3,4-diethoxyphenyl)-4-oxobutanoyl]amino}-6-phenylpyridin-4-yl)phenyl]propanoate], for which the IC50 was in the range of 50 to 500 nM.

Turning to `CCOc1ccc(C(=O)CCC(=O)Nc2cc(-c3cccc(OC(F)(F)F)c3)cc(-c3ccccc3)n2)cc1OCC` [Example 143, 4-(3,4-diethoxyphenyl)-4-oxo-N-{6-phenyl-4-[3-(trifluoromethoxy)phenyl]pyridin-2-yl}butanamide], the IC50 lay within 50 to 500 nM.

For the molecule `CCOc1ccc(C(=O)CCC(=O)Nc2cc(-c3ccccc3C#N)cc(-c3ccccc3)n2)cc1OCC` [Example 144, N-[4-(2-cyanophenyl)-6-phenylpyridin-2-yl]-4-(3,4-diethoxyphenyl)-4-oxobutanamide], the IC50 was ≤ 10 nM.

In the case of `CCOc1ccc(C(=O)CCC(=O)Nc2cc(-c3ccccc3O)cc(-c3ccccc3)n2)cc1OCC` [Example 145, 4-(3,4-diethoxyphenyl)-N-[4-(2-hydroxyphenyl)-6-phenylpyridin-2-yl]-4-oxobutanamide], the half-inhibitory concentration (IC50) was ≤ 10 nM.

Take `CCOc1ccc(C(=O)CCC(=O)Nc2cc(-c3ccccc3OC)cc(-c3ccccc3)n2)cc1OCC` [Example 146, 4-(3,4-diethoxyphenyl)-N-[4-(2-methoxyphenyl)-6-phenylpyridin-2-yl]-4-oxobutanamide]: the IC50 is ≤ 10 nM.

Turning to `CCOc1ccc(C(=O)CCC(=O)Nc2cc(-c3ccccc3CO)cc(-c3ccccc3)n2)cc1OCC` [Example 147, 4-(3,4-diethoxyphenyl)-N-{4-[2-(hydroxymethyl)phenyl]-6-phenylpyridin-2-yl}-4-oxobutanamide], the IC50 is ≤ 10 nM.
